Test results: patent US12357711B2, “PSMA binding dual mode radiotracer and therapeutic” (Technische Universität München, priority 2019, dated 2025)

Test system: SCID mice
Assay: Preclinical dosimetry from biodistribution in mice, extrapolated to 70-kg Standard Adult (OLINDA/EXM 1.0)
Type: in vivo
Details: […] bladder voiding interval
Experimental: 3-5 mice were injected per timepoint with a mean 25.6±3.6 MBq of 18F-rhPSMA-7 and 28.5±4.8 MBq of 18F-rhPSMA-7.3, respectively. Mice, severe combined immunodeficiency (SCID) were used for the experiments.
Mice were sacrificed at the following timepoints: • ^18F-rhPSMA-7: 10, 20, 40, 60, 120 and 180 minutes after administration. • ^18F-rhPSMA-7.3: 10, 60, 120, 180 and 300 minutes after administration.
Urine, blood, heart, lung, spleen, pancreas, liver, stomach (emptied), small intestine (emptied), large intestine (emptied), kidneys, bladder, testis, fat, muscle (partial, femoral), femur, tail and brain. Urine was collected with a pipette in the CO2 gas chamber. In case of missing urination in the chamber the bladder was aspirated with an insulin syringe. Blood was withdrawn instantly after sacrifice with an insulin syringe from the heart. All other tissues and organs were dissected and transferred directly in plastic containers.
The counting rates of measurement samples were automatically corrected for decay. The radioactivity distribution ratios (unit: percentage of the injected dose (% ID) in the measurement samples were determined using the equation below. The sum of the counting rates from all measurement samples obtained from one mouse was designated as the counting rate for administrated radioactivity.
The radioactivity distribution ratio per unit weight of the measurement sample (unit: % ID/g) excluding urine and feces samples was determined by using the equation below. The weight of the measurement sample was determined by subtraction of the empty measurement container from the container including the sample.
For consistency of statistical calculations for each radiotracer the same number of time-points for ^18F-rhPSMA-7 and ^18F-rhPSMA-7.3 was used. Therefore, for ^18F-rhPSMA-7 the 10 min and 20 min time points were combined creating a 15 min endpoint.
The time-integral of activity for the accumulation in the significant source organs (AUCs) were generated both with numerical integration and physical decay according to J Juan et al., Journal of Pharmaceutical Sciences, 1993, 82:762-763.
In brief, to calculate a human dosimetry from the biodistribution in the mice, an extrapolation was necessary to account for the differences between the animals and humans. Normal-organ radiation doses were estimated for the 70-kg Standard Adult anatomic model using time-depending organ activity concentrations (in percent of the injected dose per gram, % ID/g) and total-body activities measured in the biodistribution studies in mice.
Tissue activity concentrations in mice were converted to tissue fractional activities in the 70-kg Standard Adult using the relative fractional organ masses in the Standard Adult and the “standard” 25-gramm mouse. Time-dependent total-body activity was fit to an exponential function and the difference between the injected activity and the total-body activity was assumed to be excreted to the urine because activity concentrations in the liver and GI tracer were low at all time points studied.
Organ residence time was calculated by numerical integration using the trapezoidal rule and the rest-of-body ^18F residence times was calculated as the difference between the total-body residence time and the sum of the organ and urine residence times. The bladder contents residence time was estimated using the dynamic voiding model in the OLINDA/EXM 1.0 dosimetry software. Finally, the Standard Adult mean organ dose equivalents (in mSv/MBq) and effective dose (also in mSv/MBq) were then calculated using OLIN DA/EXM 1.0.
Final calculation of radiation absorbed dose and dosimetry from biodistribution in mice: The tissues or organs in which a significant accumulation of radioactivity occurs (i.e., source organ) were kidney, spleen, lung, liver and heart. With respect to activity accumulation and clearance, a rapid clearance from blood and clearance to urine but relatively slow build-up in kidney was found.

CC(C)(C)[Si](F)(c1ccc(C(=O)NC[C@@H](NC(=O)CC[C@@H](C(=O)O)N2CCN(CC(=O)[O-])CCN(CC(=O)[O-])CCN(CC(=O)[O-])CC2)C(=O)N[C@H](CCCCNC(=O)CCC(=O)NCCC[C@@H](NC(=O)CC[C@H](NC(=O)N[C@@H](CCC(=O)O)C(=O)O)C(=O)O)C(=O)O)C(=O)O)cc1)C(C)(C)C.[Ga+3] [rhPSMA7.3, [^19F][^natGa]D-Dap-S-DOTAGA-rhPSMA7]
Adrenals ED Cont.: 5.52E−05 mSv/MBq
Adrenals EDE Cont.: 0.00E000 mSv/MBq
Adrenals dose Alpha: 0.00E000 mSv/MBq
Adrenals dose Beta: 3.12E−03 mSv/MBq
Adrenals dose Photon: 7.93E−03 mSv/MBq
Adrenals dose Total: 1.10E−02 mSv/MBq
Brain ED Cont.: 3.59E−05 mSv/MBq
Brain EDE Cont.: 0.00E000 mSv/MBq
Brain dose Alpha: 0.00E000 mSv/MBq
Brain dose Beta: 3.12E−03 mSv/MBq
Brain dose Photon: 4.07E−03 mSv/MBq
Brain dose Total: 7.19E−03 mSv/MBq
Breasts ED Cont.: 3.34E−04 mSv/MBq
Breasts EDE Cont.: 1.00E−03 mSv/MBq
Breasts dose Alpha: 0.00E000 mSv/MBq
Breasts dose Beta: 3.12E−03 mSv/MBq
Breasts dose Photon: 3.55E−03 mSv/MBq
Breasts dose Total: 6.67E−03 mSv/MBq
Gallbladder Wall ED Cont.: 0.00E000 mSv/MBq
Gallbladder Wall EDE Cont.: 0.00E000 mSv/MBq
Gallbladder Wall dose Alpha: 0.00E000 mSv/MBq
Gallbladder Wall dose Beta: 3.12E−03 mSv/MBq
Gallbladder Wall dose Photon: 7.46E−03 mSv/MBq
Gallbladder Wall dose Total: 1.06E−02 mSv/MBq
Heart Wall ED Cont.: 0.00E000 mSv/MBq
Heart Wall EDE Cont.: 0.00E000 mSv/MBq
Heart Wall dose Alpha: 0.00E000 mSv/MBq
Heart Wall dose Beta: 1.32E−03 mSv/MBq
Heart Wall dose Photon: 5.39E−03 mSv/MBq
Heart Wall dose Total: 6.71E−03 mSv/MBq
Kidneys ED Cont.: 3.59E−04 mSv/MBq
Kidneys EDE Cont.: 4.31E−03 mSv/MBq
Kidneys dose Alpha: 0.00E000 mSv/MBq
Kidneys dose Beta: 5.11E−02 mSv/MBq
Kidneys dose Photon: 2.07E−02 mSv/MBq
Kidneys dose Total: 7.18E−02 mSv/MBq
LLI Wall ED Cont.: 1.91E−03 mSv/MBq
LLI Wall EDE Cont.: 9.53E−04 mSv/MBq
LLI Wall dose Alpha: 0.00E000 mSv/MBq
LLI Wall dose Beta: 3.12E−03 mSv/MBq
LLI Wall dose Photon: 1.28E−02 mSv/MBq
LLI Wall dose Total: 1.59E−02 mSv/MBq
Liver ED Cont.: 3.00E−04 mSv/MBq
Liver EDE Cont.: 0.00E000 mSv/MBq
Liver dose Alpha: 0.00E000 mSv/MBq
Liver dose Beta: 9.70E−04 mSv/MBq
Liver dose Photon: 5.02E−03 mSv/MBq
Liver dose Total: 5.99E−03 mSv/MBq
Lungs ED Cont.: 7.93E−04 mSv/MBq
Lungs EDE Cont.: 7.93E−04 mSv/MBq
Lungs dose Alpha: 0.00E000 mSv/MBq
Lungs dose Beta: 1.95E−03 mSv/MBq
Lungs dose Photon: 4.66E−03 mSv/MBq
Lungs dose Total: 6.61E−03 mSv/MBq
Muscle ED Cont.: 4.83E−05 mSv/MBq
Muscle EDE Cont.: 0.00E000 mSv/MBq
Muscle dose Alpha: 0.00E000 mSv/MBq
Muscle dose Beta: 3.12E−03 mSv/MBq
Muscle dose Photon: 6.55E−03 mSv/MBq
Muscle dose Total: 9.67E−03 mSv/MBq
Osteogenic Cells ED Cont.: 1.32E−04 mSv/MBq
Osteogenic Cells EDE Cont.: 3.97E−04 mSv/MBq
Osteogenic Cells dose Alpha: 0.00E000 mSv/MBq
Osteogenic Cells dose Beta: 6.70E−03 mSv/MBq
Osteogenic Cells dose Photon: 6.52E−03 mSv/MBq
Osteogenic Cells dose Total: 1.32E−02 mSv/MBq
Ovaries ED Cont.: 3.14E−03 mSv/MBq
Ovaries EDE Cont.: 3.92E−03 mSv/MBq
Ovaries dose Alpha: 0.00E000 mSv/MBq
Ovaries dose Beta: 3.12E−03 mSv/MBq
Ovaries dose Photon: 1.26E−02 mSv/MBq
Ovaries dose Total: 1.57E−02 mSv/MBq
Pancreas ED Cont.: 5.70E−05 mSv/MBq
Pancreas EDE Cont.: 0.00E000 mSv/MBq
Pancreas dose Alpha: 0.00E000 mSv/MBq
Pancreas dose Beta: 3.12E−03 mSv/MBq
Pancreas dose Photon: 8.29E−03 mSv/MBq
Pancreas dose Total: 1.14E−02 mSv/MBq
Red Marrow ED Cont.: 1.08E−03 mSv/MBq
Red Marrow EDE Cont.: 1.08E−03 mSv/MBq
Red Marrow dose Alpha: 0.00E000 mSv/MBq
Red Marrow dose Beta: 2.22E−03 mSv/MBq
Red Marrow dose Photon: 6.79E−03 mSv/MBq
Red Marrow dose Total: 9.01E−03 mSv/MBq
Skin ED Cont.: 6.95E−05 mSv/MBq
Skin EDE Cont.: 0.00E000 mSv/MBq
Skin dose Alpha: 0.00E000 mSv/MBq
Skin dose Beta: 3.12E−03 mSv/MBq
Skin dose Photon: 3.83E−03 mSv/MBq
Skin dose Total: 6.95E−03 mSv/MBq
Small Intestine ED Cont.: 6.27E−05 mSv/MBq
Small Intestine EDE Cont.: 0.00E000 mSv/MBq
Small Intestine dose Alpha: 0.00E000 mSv/MBq
Small Intestine dose Beta: 3.12E−03 mSv/MBq
Small Intestine dose Photon: 9.42E−03 mSv/MBq
Small Intestine dose Total: 1.25E−02 mSv/MBq
Spleen ED Cont.: 1.34E−04 mSv/MBq
Spleen EDE Cont.: 1.60E−03 mSv/MBq
Spleen dose Alpha: 0.00E000 mSv/MBq
Spleen dose Beta: 1.52E−02 mSv/MBq
Spleen dose Photon: 1.15E−02 mSv/MBq
Spleen dose Total: 2.67E−02 mSv/MBq
Stomach Wall ED Cont.: 1.22E−03 mSv/MBq
Stomach Wall EDE Cont.: 0.00E000 mSv/MBq
Stomach Wall dose Alpha: 0.00E000 mSv/MBq
Stomach Wall dose Beta: 3.12E−03 mSv/MBq
Stomach Wall dose Photon: 7.02E−03 mSv/MBq
Stomach Wall dose Total: 1.01E−02 mSv/MBq
Testes ED Cont.: 0.00E000 mSv/MBq
Testes EDE Cont.: 0.00E000 mSv/MBq
Testes dose Alpha: 0.00E000 mSv/MBq
Testes dose Beta: 3.12E−03 mSv/MBq
Testes dose Photon: 8.96E−03 mSv/MBq
Testes dose Total: 1.21E−02 mSv/MBq
Thymus ED Cont.: 4.10E−05 mSv/MBq
Thymus EDE Cont.: 0.00E000 mSv/MBq
Thymus dose Alpha: 0.00E000 mSv/MBq
Thymus dose Beta: 3.12E−03 mSv/MBq
Thymus dose Photon: 5.08E−03 mSv/MBq
Thymus dose Total: 8.20E−03 mSv/MBq
Thyroid ED Cont.: 4.14E−04 mSv/MBq
Thyroid EDE Cont.: 2.48E−04 mSv/MBq
Thyroid dose Alpha: 0.00E000 mSv/MBq
Thyroid dose Beta: 3.12E−03 mSv/MBq
Thyroid dose Photon: 5.15E−03 mSv/MBq
Thyroid dose Total: 8.27E−03 mSv/MBq
Total Body ED Cont.: 0.00E000 mSv/MBq
Total Body EDE Cont.: 0.00E000 mSv/MBq
Total Body dose Alpha: 0.00E000 mSv/MBq
Total Body dose Beta: 3.52E−03 mSv/MBq
Total Body dose Photon: 6.33E−03 mSv/MBq
Total Body dose Total: 9.86E−03 mSv/MBq
ULI Wall ED Cont.: 5.85E−05 mSv/MBq
ULI Wall EDE Cont.: 0.00E000 mSv/MBq
ULI Wall dose Alpha: 0.00E000 mSv/MBq
ULI Wall dose Beta: 3.12E−03 mSv/MBq
ULI Wall dose Photon: 8.57E−03 mSv/MBq
ULI Wall dose Total: 1.17E−02 mSv/MBq
Urinary Bladder Wall ED Cont.: 1.14E−02 mSv/MBq
Urinary Bladder Wall EDE Cont.: 1.36E−02 mSv/MBq
Urinary Bladder Wall dose Alpha: 0.00E000 mSv/MBq
Urinary Bladder Wall dose Beta: 1.56E−01 mSv/MBq
Urinary Bladder Wall dose Photon: 7.14E−02 mSv/MBq
Urinary Bladder Wall dose Total: 2.27E−01 mSv/MBq
Uterus ED Cont.: 1.18E−04 mSv/MBq
Uterus EDE Cont.: 1.41E−03 mSv/MBq
Uterus dose Alpha: 0.00E000 mSv/MBq
Uterus dose Beta: 3.12E−03 mSv/MBq
Uterus dose Photon: 2.04E−02 mSv/MBq
Uterus dose Total: 2.36E−02 mSv/MBq
